Measured values as given in patent publication US20250382331A1, “Carrier Peptide Fragment and Use Thereof” (TOAGOSEI CO., LTD., priority 2022, published 2025).
Primed or numbered codes have the meaning given here. FAM = 5(6)-carboxyfluorescein; FAM″ = C-terminal FAM dye

tested on: NSC-34 cells; assay: Evaluation on cell membrane permeability by flow cytometry; format: cell-based, mouse; conditions: 10 μM construct (additive), 0.5% DMSO, 20 hours incubation, flow cytometer FL2
Procedure: As the eukaryotic cells, NSC-34 cells (mouse motor neuron-like hybrid cell line) were used and the cell membrane permeability of the constructs 1 to 4 was analyzed. In Examples 1 to 4, the prepared samples 1 to 4 were used, respectively, and in Example 5, a FAM solution was used.
The NSC-34 cells were cultured in 10% fetal bovine serum (FBS)-containing Dulbecco's modified Eagle's medium (DMEM (Cat No. 044-29765, manufactured by FUJIFILM Wako Pure Chemical Corporation)), which is a normal culture medium.
The NSC-34 cells that adhered to a culture plate were cleaned with PBS and then, a 0.25%-trypsin/EDTA solution was added thereto, and incubation was performed for three minutes at 37° C. After the incubation, the aforementioned 10% FBS-containing DMEM was added to deactivate trypsin and then, five-minute centrifugal separation was performed at 150×g to precipitate the cells. After the supernatant generated by the centrifugal separation was removed, the 10% FBS-containing DMEM was added to the precipitate (cell pellet) to prepare a cell suspension of about 2×10^5 cells/mL. The cell suspension was added by 1 mL to a well of a commercially available six-hole (well) plate (manufactured by AGC TECHNO GLASS Co., Ltd.) so as to seed the cell (about 2×10^5 cells/well). In addition, the 2 mM sample solution 1 was diluted with the 10% FBS-containing DMEM to prepare the sample solution 1 in which the concentration of the sample 1 was 20 μM. Then, 1 mL of the 20 μM sample solution 1 was added to the well (that is, so that the concentration of the sample 1 became 10 μM and the DMSO concentration became 0.5% in the culture solution in the well). After that, the cell was incubated for 20 hours at 37° C. under a 5% CO2 condition.
After the 20-hour incubation, the culture supernatant was removed from the well and the cells in the well were cleaned twice with 1 mL of PBS. Next, 200 μL of the 0.25% trypsin/EDTA solution was added to the well and the incubation was performed for three minutes at 37° C. After the incubation, 400 μL of the 10% FBS-containing DMEM was added to the well to deactivate the trypsin. Subsequently, the cell suspension in the well was transferred to a tube and the cells were collected. After that, 600 μL of PBS was added further to the well to clean the well. Then, PBS in the well was transferred to the tube, so that the cells remaining in the well were collected in the tube. This tube was subjected to five-minute centrifugal separation at 4° C. under a condition of 210×g. After the centrifugal separation, the supernatant was removed and the precipitate (cell pellet) was suspended (cleaned) with 1 mL of PBS, which was followed by the centrifugal separation under the same condition as that described above. After this operation was repeated twice, the supernatant was removed and thus, the cells (cell pellet) cultured in a culture medium containing the sample 1 were obtained.
Regarding the obtained cells (cell pellet), the cell membrane permeability of the sample 1 was analyzed using a flow cytometer. […]
Using the aforementioned flow cytometer, gating based on forward scatter (FSC) and side scatter (SSC) was performed to set a gate about a cell group to be analyzed, and the fluorescence intensity was measured about the cell group in this gate. […] The fluorescence intensity was measured using a fluorescence detector FL2 of the flow cytometer (optimum detection wavelength around 543 nm) capable of detecting the fluorescence wavelength of FAM. […]

First: 5(6)-carboxyfluorescein [Example 5, reference compound]
Second: Ac-KKRTLRKNSNRKKR-FAM (Ac-KKRTLRKNSNRKKR-{FAM}) [Example 4]
The “MFI (median fluorescence intensity)” value of the first is lower: 8.15 for the first, 16.7 for the second.

Compared with “Ac-KKRTLRKSNNRKKR-FAM (Ac-KKRTLRKSNNRKKR-{FAM}) [Example 3]”, “Ac-KKRTLRKSNSRKKR-FAM (Ac-KKRTLRKSNSRKKR-{FAM″}) [Example 1]” is lower in “MFI (median fluorescence intensity)” value: 13.6 for the first, 11.2 for the second.

With “Ac-KKRTLRKSSNRKKR-FAM (Ac-KKRTLRKSSNRKKR-{FAM″}) [Example 2]” the “MFI (median fluorescence intensity)” value was 12.9.
